Test results from US5194371A, “Production of pradimicin antibiotics” (Bristol-Myers Squibb Company, priority 1991, dated 1993).

Tests used:
Candida albicans A9540 = test: In vivo efficacy against C. albicans A9540 systemic infection in mice; parameters: species or system male ICR mice infected with Candida albicans; settings: A9540, iv, 504 h, i.v., single dose immediately after challenge, survival on day 21, read-out: PD50 (median protective dose)
Method: The in vivo efficacy of BMY-28960 was evaluated against Candida albicans A9540 systemic infection in male ICR mice (20-24 g body weight). Five mice are used for each dose level. Mice were challenged intravenously with 10 times the median lethal dose of the pathogen suspended in saline and BMY-28960 was intravenously administered once immediately after the challenge. The median protective dose (PD50) was calculated from survival rates recorded on day 21.

[1] = Tolerability following intravenous administration in ICR mice; assay type: in vivo; settings: i.v., up to 600 mg/kg
strain AB 1236 = test: Antibiotic susceptibility of strain AB 1236 (antibiotic disks); assay type: cell-based, Actinomadura sp. AB 1236; settings: 37° C., 4 days
Method: Antibiotic susceptibility of strain AB 1236 was tested using antibiotic disks (Tridisk, Eiken Chemical Co., Ltd.). The disks were placed onto the surface of yeast-glucose-malt agar (yeast extract 0.1%, glucose 1%, malt extract 0.1%, CaCl2.2H2 O 0.05% and agar 1.5%) which had been seeded by strain AB 1236 (4% inoculum), and the plates were then incubated at 37° C. for 4 days. Strain AB 1236 was resistant to 50 μg of fosfomycin and 300 U of polymixin B, and susceptible to 20 U of ampicillin, 1 μg of clavulanic acid, 2 μg of ticarcillin, 10 μg of cephalexin, 30 μg of tetracycline, 10 μg of chloramphenicol, 0.5 μg of erythromycin, 2 μg of josamycin, 2 μg of lincomycin, 5 μg of kanamycin, 5 μg of gentamicin, 5 μg of tobramycin, 2 μg of nalidixic acid, 2 μg of norfloxacin and 50 U of colistin.

**Q.** With `C[C@@H]1[C@H](O)[C@@H](C)/C=C/C=C/C=C/C=C/C=C/C=C/C=C/[C@H](O[C@@H]2O[C@H](C)[C@@H](O)[C@H](N)[C@@H]2O)C[C@@H]2O[C@](O)(C[C@@H](O)C[C@@H](O)[C@H](O)CC[C@@H](O)C[C@@H](O)CC(=O)O[C@H]1C)C[C@H](O)[C@H]2C(=O)O` [Amphotericin B] as the compound, how does the ED50 (Candida albicans A9540) read?
**A.** 0.31 mg/kg

**Q.** For `COc1cc(O)c2c(c1)C(=O)c1c(cc3c(c1O)-c1c(cc(C)c(C(=O)N[C@H](CO)C(=O)O)c1O)[C@H](O[C@@H]1O[C@H](C)[C@H](O)[C@H](O[C@@H]4OC[C@@H](O)[C@H](O)[C@H]4O)[C@H]1O)[C@H]3O)C2=O` [BMY-28960, 4'-deamino-4'-axial-hydroxypradimicin FA-2], which Solubility in solvent (Solubility in solvent; Dimethyl sulfoxide, N,N-dimethylformamide and alkaline water) is on record?
**A.** Soluble

**Q.** And the Solubility in solvent (Solubility in solvent; Ethanol, methanol and acetone)?
**A.** Slightly soluble

**Q.** What about the Solubility in solvent (Solubility in solvent; Ethyl acetate, benzene, chloroform, acidic water, etc.) of the same compound?
**A.** Isoluble

**Q.** And the “Lethality and apparent side effects” value [1]?
**A.** neither lethality nor apparent side effects were noted

**Q.** And the ED50 (Candida albicans A9540)?
**A.** 6.7 mg/kg

**Q.** For `OC(Cn1cncn1)(Cn1cncn1)c1ccc(F)cc1F` [Fluconazole], which ED50 (Candida albicans A9540) is on record?
**A.** > 50 mg/kg

**Q.** Which ED50 (Candida albicans A9540) does the source give for `CN[C@@H]1[C@H](O[C@@H]2OC[C@@H](O)[C@H](O)[C@H]2O)[C@@H](O)[C@H](O[C@H]2c3cc(C)c(C(=O)N[C@H](C)C(=O)O)c(O)c3-c3c(cc4c(c3O)C(=O)c3cc(OC)cc(O)c3C4=O)[C@@H]2O)O[C@@H]1C` [Pradimicin A] here?
**A.** 10 mg/kg

**Q.** For `CC1(C)S[C@@H]2[C@H](NC(=O)[C@H](N)c3ccccc3)C(=O)N2[C@H]1C(=O)O` [ampicillin], which “Antibiotic susceptibility of strain AB 1236” value (from here on “Antibiotic susceptibility”) (strain AB 1236; disk 20 U) is on record?
**A.** susceptible

**Q.** For `CC1=C(C(=O)O)N2C(=O)[C@@H](NC(=O)[C@H](N)c3ccccc3)[C@H]2SC1` [cephalexin], which “Antibiotic susceptibility” value (strain AB 1236; disk 10 μg) is on record?
**A.** susceptible

**Q.** For `O=C(N[C@H](CO)[C@H](O)c1ccc([N+](=O)[O-])cc1)C(Cl)Cl` [chloramphenicol], which “Antibiotic susceptibility” value (strain AB 1236; disk 10 μg) is on record?
**A.** susceptible

**Q.** Which “Antibiotic susceptibility” value (strain AB 1236; disk 1 μg) does the source give for `O=C(O)[C@H]1/C(=C/CO)O[C@@H]2CC(=O)N21` [clavulanic acid] here?
**A.** susceptible

**Q.** Which “Antibiotic susceptibility” value (strain AB 1236; disk 0.5 μg) does the source give for `CC[C@H]1OC(=O)[C@H](C)[C@@H](O[C@H]2C[C@@](C)(OC)[C@@H](O)[C@H](C)O2)[C@H](C)[C@@H](O[C@@H]2O[C@H](C)C[C@H](N(C)C)[C@H]2O)[C@](C)(O)C[C@@H](C)C(=O)[C@H](C)[C@@H](O)[C@]1(C)O` [erythromycin] here?
**A.** susceptible

**Q.** For `C[C@@H]1O[C@@H]1P(=O)(O)O` [fosfomycin], which “Antibiotic susceptibility” value (strain AB 1236; disk 50 μg) is on record?
**A.** resistant

**Q.** Which “Antibiotic susceptibility” value (strain AB 1236; disk 5 μg) does the source give for `NC[C@H]1O[C@H](O[C@H]2[C@H](O)[C@@H](O[C@H]3O[C@H](CO)[C@@H](O)[C@H](N)[C@H]3O)[C@H](N)C[C@@H]2N)[C@H](O)[C@@H](O)[C@@H]1O` [kanamycin] here?
**A.** susceptible

**Q.** Which “Antibiotic susceptibility” value (strain AB 1236; disk 2 μg) does the source give for `CCC[C@@H]1C[C@@H](C(=O)N[C@@H]([C@H]2O[C@H](SC)[C@H](O)[C@@H](O)[C@H]2O)[C@@H](C)O)N(C)C1` [lincomycin] here?
**A.** susceptible

**Q.** With `CCn1cc(C(=O)O)c(=O)c2ccc(C)nc21` [nalidixic acid] as the compound, how does the “Antibiotic susceptibility” value (strain AB 1236; disk 2 μg) read?
**A.** susceptible

**Q.** Which “Antibiotic susceptibility” value (strain AB 1236; disk 2 μg) does the source give for `CCn1cc(C(=O)O)c(=O)c2cc(F)c(N3CCNCC3)cc21` [norfloxacin] here?
**A.** susceptible

**Q.** With `CN(C)C1C(=O)C(C(N)=O)=C(O)C2(O)C(=O)C3=C(O)c4c(O)cccc4C(C)(O)C3CC12` (stereo not shown) [tetracycline] as the compound, how does the “Antibiotic susceptibility” value (strain AB 1236; disk 30 μg) read?
**A.** susceptible

**Q.** With `CC1(C)S[C@@H]2[C@H](NC(=O)[C@H](C(=O)O)c3ccsc3)C(=O)N2[C@H]1C(=O)O` [ticarcillin] as the compound, how does the “Antibiotic susceptibility” value (strain AB 1236; disk 2 μg) read?
**A.** susceptible

**Q.** For `NC[C@H]1O[C@H](O[C@H]2[C@H](O)[C@@H](O[C@H]3O[C@H](CO)[C@@H](O)[C@H](N)[C@H]3O)[C@H](N)C[C@@H]2N)[C@H](N)C[C@@H]1O` [tobramycin], which “Antibiotic susceptibility” value (strain AB 1236; disk 5 μg) is on record?
**A.** susceptible

**Q.** With colistin as the compound, how does the “Antibiotic susceptibility” value (strain AB 1236; disk 50 U) read?
**A.** susceptible

**Q.** Which “Antibiotic susceptibility” value (strain AB 1236; disk 5 μg) does the source give for gentamicin here?
**A.** susceptible

**Q.** With josamycin as the compound, how does the “Antibiotic susceptibility” value (strain AB 1236; disk 2 μg) read?
**A.** susceptible

**Q.** Which “Antibiotic susceptibility” value (strain AB 1236; disk 300 U) does the source give for polymixin B here?
**A.** resistant
